Starred links: 1 amine or outer side, 2 acyl side, 3 side chain; linkers in the order of their positions; H or OH if unused. Positions of bridges follow the written chain, without caps; N, C: chain ends. Non-standard residues stand in square brackets, D forms with d. Residues, ends and D or L forms follow the SMILES beside them. *: point of attachment. hPhe(3,5-F2-4-CF3) = N[C@@H](CCc1cc(F)c(C(F)(F)F)c(F)c1)C(=O)O; hPhe(3-Cl-4-CF3) = N[C@@H](CCc1ccc(C(F)(F)F)c(Cl)c1)C(=O)O; NMePhe(4-CF3) = CN[C@@H](Cc1ccc(C(F)(F)F)cc1)C(=O)O; 3Oxa8azabicyclo(3.2.1)octane = C1CC2COCC1N2*; NMedβ3hAla = C[C@H](CC(=O)[*:2])N(C)[*:1]; NMeGly(cBu) = CN[C@H](C(=O)O)C1CCC1; NMeCha = CN[C@@H](CC1CCCCC1)C(=O)O; Hyp = O=C(O)[C@@H]1C[C@@H](O)CN1; NMeCba = CN[C@@H](CC1CCC1)C(=O)O; NMeChg = CN[C@H](C(=O)O)C1CCCCC1; NMeI = CC[C@H](C)[C@H](NC)C(=O)O; NMeD = CN[C@@H](CC(=O)O)C(=O)O; NMeL = CN[C@@H](CC(C)C)C(=O)O; NMeV = CN[C@H](C(=O)O)C(C)C; d(β3hA) = C[C@@H](N)CC(=O)O; NMeS = CN[C@@H](CO)C(=O)O; NMeA = CN[C@@H](C)C(=O)O; Piperidide = C1CCN(*)CC1; Pyrrolidide = C1CCN(*)C1; Ac5c = NC1(C(=O)O)CCCC1; Aze = O=C(O)[C@@H]1CCN1; Isopentyl = CC(C)CC*; Sar = CNCC(=O)O
Tested on: Human pancreatic cancer cell line AsPC-1
Test: Measurement of AsPC-1 cell growth inhibition (AsPC-1 CGI)
Type: cell-based
Conditions: 96 h
In short: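 AsPC-1 cells in 15% FBS RPMI-1640 were exposed to test compound for 96 hours at 37° C, with CellTiter-Glo as endpoint.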

SMILES	IC50
CC[C@H](C)[C@@H]1NC(=O)[C@H](CC(C)C)N(C)C(=O)C[C@@H](C(=O)N2CCCCC2)N(C)C(=O)[C@H](C(C)C)N(C)C(=O)C2(CCCC2)NC(=O)[C@@H]2CCCN2C(=O)[C@H](CCc2ccc(C(F)(F)F)c(Cl)c2)NC(=O)CN(C)C(=O)[C@H](C2CCC2)N(C)C(=O)[C@@H]2CCN2C(=O)[C@H](C)N(C)C1=O [Compound 446] ([NMeL]I[NMeA][Aze][NMeGly(cBu)][Sar][hPhe(3-Cl-4-CF3)]P[Ac5c][NMeV][NMeD]-Piperidide; lactam N-11)	100 to 500 nM
CC[C@H](C)[C@@H]1NC(=O)[C@H](CC(C)C)N(C)C(=O)C[C@@H](C(=O)N2CCCC2)NC(=O)[C@H]([C@@H](C)CC)N(C)C(=O)C2(CCCC2)NC(=O)[C@@H]2CCCN2C(=O)[C@H](CCc2ccc(C(F)(F)F)c(Cl)c2)NC(=O)CN(C)C(=O)[C@H](CC2CCCCC2)N(C)C(=O)[C@@H]2CCN2C(=O)[C@H](C)N(C)C1=O [Compound 453] ([NMeL]I[NMeA][Aze][NMeCha][Sar][hPhe(3-Cl-4-CF3)]P[Ac5c][NMeI]D-Pyrrolidide; lactam N-11)	50 to 100 nM
CC[C@H](C)[C@@H]1NC(=O)[C@H](CC2CCC2)N(C)C(=O)C[C@@H](C)NC(=O)[C@H](C(C)C)N(C)C(=O)C2(CCCC2)NC(=O)[C@@H]2CCCN2C(=O)[C@H](CCc2ccc(C(F)(F)F)c(Cl)c2)NC(=O)CN(C)C(=O)[C@H](CC2CCCCC2)N(C)C(=O)[C@@H]2CCN2C(=O)[C@H](C)N(C)C1=O [Compound 455] (cyclo([Ac5c][NMeV][d(β3hA)][NMeCba]I[NMeA][Aze][NMeCha][Sar][hPhe(3-Cl-4-CF3)]P))	100 to 500 nM
CC[C@H](C)[C@@H]1NC(=O)[C@H](CC(C)C)N(C)C(=O)C[C@@H](C(=O)N2C3CCC2COC3)N(C)C(=O)[C@H]([C@@H](C)CC)N(C)C(=O)C2(CCCC2)NC(=O)[C@@H]2CCCN2C(=O)[C@H](CCc2ccc(C(F)(F)F)c(Cl)c2)NC(=O)CN(C)C(=O)[C@H](CC2CCCCC2)N(C)C(=O)[C@@H]2CCN2C(=O)[C@H](C)N(C)C1=O [Compound 469] ([NMeL]I[NMeA][Aze][NMeCha][Sar][hPhe(3-Cl-4-CF3)]P[Ac5c][NMeI][NMeD]-{3Oxa8azabicyclo(3.2.1)octane}; lactam N-11)	20 to 50 nM
CC[C@H](C)[C@@H]1NC(=O)[C@H](CC(C)C)N(C)C(=O)C[C@@H](C(=O)N2CCCCC2)N(C)C(=O)[C@H](C(C)C)N(C)C(=O)C2(CCCC2)NC(=O)[C@@H]2CCCN2C(=O)[C@H](CCc2ccc(C(F)(F)F)c(Cl)c2)NC(=O)CN(C)C(=O)[C@H](COCCC(C)C)N(C)C(=O)[C@@H]2CCN2C(=O)[C@H](C)N(C)C1=O [Compound 470] ([NMeL]I[NMeA][Aze][NMeS](Isopentyl)[Sar][hPhe(3-Cl-4-CF3)]P[Ac5c][NMeV][NMeD]-Piperidide; lactam N-11)	100 to 500 nM
CC[C@H](C)[C@@H]1NC(=O)[C@H](CC(C)C)N(C)C(=O)C[C@@H](C(=O)N2CCCCC2)N(C)C(=O)[C@H](C(C)C)N(C)C(=O)C2(CCCC2)NC(=O)[C@@H]2CCCN2C(=O)[C@H](CCc2ccc(C(F)(F)F)c(Cl)c2)NC(=O)CN(C)C(=O)[C@H](CC2CCCCC2)N(C)C(=O)[C@@H]2CCN2C(=O)[C@H](C)N(C)C1=O [Compound 476] ([NMeL]I[NMeA][Aze][NMeCha][Sar][hPhe(3-Cl-4-CF3)]P[Ac5c][NMeV][NMeD]-Piperidide; lactam N-11)	100 to 500 nM
CCO[C@@H]1C[C@H]2C(=O)NC3(CCCC3)C(=O)N(C)[C@@H](C3CCCCC3)C(=O)N(C)[C@H](C)CC(=O)N(C)[C@@H](CC(C)C)C(=O)N[C@@H]([C@@H](C)CC)C(=O)N(C)[C@@H](C)C(=O)N3CC[C@H]3C(=O)N(C)[C@@H](Cc3ccc(C(F)(F)F)cc3)C(=O)N(C)CC(=O)N[C@@H](CCc3cc(F)c(C(F)(F)F)c(F)c3)C(=O)N2C1 [Compound 486] (cyclo([Ac5c][NMeChg][NMedβ3hAla][NMeL]I[NMeA][Aze][NMePhe(4-CF3)][Sar][hPhe(3,5-F2-4-CF3)][Hyp](Et)))	50 to 100 nM

From patent US12371454B2, “Cyclic peptide compound having Kras inhibitory action” (priority 2019, dated 2025)
